Legend:
Septoria tritici = test: Activity against the Septoria leaf blotch pathogen in the microtiter test; type: cell-based; conditions: Zymoseptoria tritici, 168 h; 31 ppm active compound; absorption at 405 nm on day 7 after inoculation; relative to active compound-free control (100%)
Description: The stock solution was pipetted into a microtiter plate (MTP) and diluted with water to the stated active compound concentration. An aqueous malt-based spore suspension of Septoria tritici was then added. The plates were placed in a water vapor-saturated chamber at temperatures of 18° C. Using an absorption photometer, the MTPs were measured at 405 nm on day 7 after the inoculation. The measured parameters were compared to the growth of the active compound-free control variant (100%) and the fungus- and active compound-free blank value to determine the relative growth in % of the pathogens in the individual active compounds.

Botrytis cinerea = test: Activity against the gray mold pathogen in the microtiter test; type: cell-based; conditions: 168 h, 31 ppm active compound, absorption at 405 nm on day 7 after inoculation, relative to active compound-free control

| Structure (SMILES) | relative pathogen growth at 31 ppm (Septoria tritici) [%] | relative pathogen growth at 31 ppm (Botrytis cinerea) [%] |
| --- | --- | --- |
| Cc1cc(F)ccc1OCC(C(O)C(C)(C)C)n1cncn1 (stereo not drawn) [I.8] | ≤ 14 | ≤ 13 |
| CC(C)(C)C(O)C(CCCCOc1cc(Cl)ccc1F)n1cncn1 (stereo not drawn) [I.12b, 8-(5-chloro-2-fluorophenoxy)-2,2-dimethyl-4-[1,2,4]triazol-1-yloctan-3-ol] | ≤ 14 | ≤ 13 |
| CC(C)(C)C(O)C(COc1ccc(Cl)cc1Br)n1cncn1 (stereo not drawn) [I.32] | – | ≤ 13 |
| CC(C)(C)C(O)C(COc1ccc(F)c(F)c1F)n1cncn1 (stereo not drawn) [I.40] | ≤ 14 | ≤ 13 |
| CC(C)(C)C(O)C(COc1cccc(C(F)(F)F)c1F)n1cncn1 (stereo not drawn) [I.45] | ≤ 14 | ≤ 13 |

Reference: US20110160056A1, “Triazole compounds, the use thereof and preparations containing these compounds” (BASF SE, priority 2008, published 2011)
